Where two headings read alike, the source gives them in different places. A value given as a limit tells only on which side of the number the result lay.

Broadly, the IC50 is the concentration that gives 50% inhibition.

In data set [1] the test system is T98G cells. The experiment in a line: 72-hour cell viability assay (Alamar Blue), T98G. The format is cell-based. The following applies: WT BRAF. As for the experimental part: (§1) Cell Culture and reagents. All cell lines were grown in a 37° C., 5% CO2, humidified environment, in media containing 1% penicillin/streptomycin. Cell culture conditions are as follows: MDCK cells transfected with MDR1 (or ABCB1) were obtained from the Netherlands Cancer Institute (Amsterdam, The Netherlands) and maintained in DMEM with 10% fetal bovine serum (FBS, Gemini). Traditional cell lines A375, CHL-1, B16F10, and U118MG were grown in DMEM with 10% FBS, SK-MEL-28, U87 and T98G in EMEM with 10% FBS, AM-38 in EMEM with 20% HI-FBS (Gibco), HT29 in McCoy's 5A with 10% FBS, HCT116 in RPMI with 10% FBS. Compounds were dissolved in DMSO (1% final concentration, Sigma-Aldrich) for cell culture studies.
(§2) Cell viability assays. Cells were harvested, seeded in a 96-well plate and allowed to adhere overnight. Compound was added to each well in DMSO (1% final concentration). Cells were incubated for 72 hours before viability was assessed by the Alamar Blue Assay. Raptinal ([…]) was used as a dead control.
(Alamar Blue is a resazurin reagent that responds to reducing activity.)

Data set [2] deals with CHL-1 cells. Nature of the data set: 72-hour cell viability assay (Alamar Blue), CHL-1. The format is cell-based. The protocol: as §1, §2
Data set [3] relates to U118MG cells. Nature of the data set: 72-hour cell viability assay (Alamar Blue), U118MG. The format is cell-based. The following applies: WT BRAF. The protocol: as §1, §2
Data set [4] concerns HCT116 cells. Nature of the data set: 72-hour cell viability assay (Alamar Blue), HCT116. The format is cell-based. The protocol: as §1, §2
Data set [5] concerns AM-38 cells. The experiment in a line: 72-hour cell viability assay (Alamar Blue), AM-38. The format is cell-based. The following applies: glioma. As for the experimental part: as §1, §2
The target of data set [6] is T1, P-gp (Mus musculus, UniProt P21447).
T1 construct: tissue Charles River (CD-1 mice); host or cells: living CD-1 mice; blood-brain barrier / brain
The experiment in a line: P-gp in vivo assay (elacridar pretreatment). The following applies: for enhancement of BBB penetrance by P-gp inhibition: elacridar 2.5 mg/kg, compound 25 mg/kg IV. The protocol: Actionability in animals. […] At each time point, blood and brain were harvested, and compound concentrations in each compartment were quantified.
In this experiment, brain-to-blood ratios of P-gp substrates […] with the P-gp inhibitor compared to vehicle, while those of non-substrates will remain the same.
Blood-brain barrier penetrance P-gp in vivo assays. […] CD-1 mice were purchased from Charles River and acclimated for 4-7 days before use. Mice were administered elacridar or its vehicle at 2.5 mg/kg via lateral tail vein injection. Thirty-minutes post injection, mice were then treated with compounds at 25 mg/kg intravenously now in the other tail vein. At each time point, mice were sacrificed and blood was collected by lacerating the right auricle with iris scissors. An 18-gauge angiocatheter was inserted through the left ventricle, and all residual circulatory volume was removed by perfusing 0.9% saline solution via an analog peristaltic pump. Brains were harvested from the cranial vault and flash frozen. Blood samples were centrifuged at 13,000 ref for 10 minutes and the supernatant serum was stored at −80° C. until analysis. Brain samples were homogenized in ice-cold methanol and centrifuged first at 2000 ref for three minutes and then 13,000 ref for ten minutes and supernatant and tissue debris were separated and stored at −80° C. The resultant supernatant and serum were analyzed by LC-MS/MS to determine compound concentrations. […] All compounds were administered at 5 mL/kg.

The subject of data set [7] is MAPK signaling (phospho-MEK1/2, phospho-ERK1/2) in A375 cells. The experiment in a line: Immunoblotting of MEK1/2 and ERK1/2 phosphorylation, A375. The following applies: for dose-response of phospho-ERK1/2 inhibition: A375, 0.01-10 μM, 1 and 24 h; for inhibition of MAPK signaling (MEK1/2 and ERK1/2 phosphorylation): A375, 1 h of treatment; for inhibition of ERK1/2 phosphorylation after 24 h: A375, highest concentrations (10 μM). The format is cell-based, human. The protocol:
Immunoblotting. Cells were lysed using RIPA buffer containing phosphatase (BioVision) and protease inhibitor cocktail (Calbiochem). Protein concentration was determined using the BCA assay (Pierce). Cell lysates containing […] of protein were loaded into each lane of 4% to 20% gradient gels (Bio-Rad) for SDS-PAGE. Proteins were transferred onto PDVF membrane for Western blot analysis. Blots were blocked with BSA for one hour followed by incubation with primary antibody overnight (dilution according to manufacturer's protocols), and then secondary antibody was incubated for one hour. Blots were then imaged with a ChemiDoc Touch (Bio-Rad) after incubation with SuperSignal West Pico Solution (ThermoFischer) following manufacturer's protocols. All antibodies were purchased from Cell Signaling Technology: p-ERK (9101S), ERK (4695S), p-MEK (9121S), MEK (8727S), vinculin (13901S) Rabbit IgG-HRP (7074), […] (5125).
Background: A western blot detects proteins with antibodies after separation by electrophoresis.

For data set [8], the system named is B16F10 cells. Nature of the data set: 72-hour cell viability assay (Alamar Blue), B16F10. The format is cell-based. The protocol:
as §1, §2

The subject of data set [9] is A375 cells. The experiment in a line: 72-hour cell viability assay (Alamar Blue), A375. The format is cell-based, human. The following applies: for IC50: 72-hour incubation, Alamar Blue, V600E BRAF. Put shortly:
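Overnight-adhered cells received compound in DMSO at 1% final concentration and were incubated 72 hours; Alamar Blue then gave the viability readout, with 50 µM Raptinal defining full kill.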

For data set [10], the system named is HT29 cells. Nature of the data set: 72-hour cell viability assay (Alamar Blue), HT29. The format is cell-based. The following applies: colon. As for the experimental part:
as §1, §2

The test system of data set [11] is U87 cells. The experiment in a line: 72-hour cell viability assay (Alamar Blue), U87. The format is cell-based. The following applies: WT BRAF. As for the experimental part: as §1, §2
The test system of data set [12] is SK-MEL-28 cells. Nature of the data set: 72-hour cell viability assay (Alamar Blue), SK-MEL-28. The format is cell-based. The following applies: melanoma. The protocol:
as §1, §2

The mark [13] stands for this setting: Homo sapiens, T98G, glioma, read-out: T98G (WT) IC50.
Where [14] appears, read: Homo sapiens, T98G, read-out: T98G IC50.
Where [15] appears, read: Homo sapiens, CHL-1, WT BRAF, melanoma, read-out: CHL-1 (WT) IC50.
Where [16] appears, read: Homo sapiens, CHL-1, WT BRAF, read-out: CHL-1 IC50.
Setting [17] is: Homo sapiens, U-118-MG, glioma, read-out: U118MG (WT) IC50.
The mark [18] stands for this setting: Homo sapiens, U-118-MG, read-out: U118MG IC50.
Where [19] appears, read: Homo sapiens, HCT-116, WT BRAF, colon, read-out: HCT116 (WT) IC50.
Where [20] appears, read: Homo sapiens, HCT-116, WT BRAF, read-out: HCT116 IC50.
Where [21] appears, read: Homo sapiens, AM-38, V600E BRAF.
Setting [22] is: Mus musculus, B16-F10, WT BRAF, melanoma, read-out: B16F10 (WT) IC50.
The mark [23] stands for this setting: Mus musculus, B16-F10, WT BRAF, read-out: B16F10 IC50.
[24] abbreviates: Homo sapiens, HT-29, V600E BRAF.
[25] abbreviates: Homo sapiens, U-87 MG, read-out: U87 IC50.
[26] abbreviates: Homo sapiens, glioma, read-out: U87 (WT) IC50.
Where [27] appears, read: Homo sapiens, SK-MEL-28, V600E BRAF.

T1 sequence (P21447 whole entry): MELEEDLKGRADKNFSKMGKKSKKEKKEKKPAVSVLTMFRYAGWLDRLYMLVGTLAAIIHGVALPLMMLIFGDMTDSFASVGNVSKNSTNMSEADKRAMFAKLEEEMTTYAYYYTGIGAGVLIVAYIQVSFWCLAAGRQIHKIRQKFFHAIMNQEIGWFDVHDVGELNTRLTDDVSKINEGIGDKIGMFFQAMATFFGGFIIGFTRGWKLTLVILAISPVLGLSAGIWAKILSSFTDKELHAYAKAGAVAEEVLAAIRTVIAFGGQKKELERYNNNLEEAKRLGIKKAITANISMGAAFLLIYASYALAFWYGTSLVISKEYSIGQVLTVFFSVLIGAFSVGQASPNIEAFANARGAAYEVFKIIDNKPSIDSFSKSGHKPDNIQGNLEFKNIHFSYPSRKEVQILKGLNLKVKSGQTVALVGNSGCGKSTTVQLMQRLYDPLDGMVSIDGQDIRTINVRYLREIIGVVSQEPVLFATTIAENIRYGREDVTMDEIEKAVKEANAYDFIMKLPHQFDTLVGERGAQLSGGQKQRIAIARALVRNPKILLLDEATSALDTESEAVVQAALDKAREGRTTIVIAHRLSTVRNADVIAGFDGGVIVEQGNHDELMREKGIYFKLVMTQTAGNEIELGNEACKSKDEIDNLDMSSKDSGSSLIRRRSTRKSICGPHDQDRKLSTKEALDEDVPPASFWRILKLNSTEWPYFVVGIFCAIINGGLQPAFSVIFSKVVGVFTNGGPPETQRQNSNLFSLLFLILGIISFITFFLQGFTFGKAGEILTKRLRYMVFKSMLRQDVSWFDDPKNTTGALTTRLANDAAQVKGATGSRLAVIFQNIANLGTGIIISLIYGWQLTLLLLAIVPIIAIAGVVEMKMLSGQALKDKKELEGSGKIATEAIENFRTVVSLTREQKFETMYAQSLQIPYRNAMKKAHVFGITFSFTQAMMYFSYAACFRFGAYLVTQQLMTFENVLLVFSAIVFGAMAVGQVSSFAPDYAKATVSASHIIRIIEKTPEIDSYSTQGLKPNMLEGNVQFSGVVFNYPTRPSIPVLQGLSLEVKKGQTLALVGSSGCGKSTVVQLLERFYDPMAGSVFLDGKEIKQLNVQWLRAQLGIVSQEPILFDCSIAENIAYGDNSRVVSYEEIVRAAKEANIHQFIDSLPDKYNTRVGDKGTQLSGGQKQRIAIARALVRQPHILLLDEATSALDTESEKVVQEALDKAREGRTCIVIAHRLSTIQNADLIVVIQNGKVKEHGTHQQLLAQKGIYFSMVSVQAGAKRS

Consider `CCCS(=O)(=O)Nc1cc(Cl)cc(-c2nc(C(C)(C)C)sc2-c2ccnc(N)n2)c1F` [6-261, N-(3-(5-(2-aminopyrimidin-4-yl)-2-(tert-butyl)thiazol-4-yl)-5-chloro-2-fluorophenyl)propane-1-sulfonamide], for which the IC50 in data set [1] (setting [13]), in [1] (setting [14]), in data set [2] (setting [15]), in data set [2] (setting [16]), in [3] (setting [17]) and in data set [3] (setting [18]) was above 1000 nM each time. Also, the IC50 in [4] (setting [19]) is above 1000 nM; in data set [4] (setting [20]) it was above 1000 nM; in [5] (setting [21]), 8.5 ± 1.2 nM; in data set [8] (setting [22]), above 1000 nM; in data set [8] (setting [23]) it was above 1000 nM; in [9] (Homo sapiens, A-375, 72 h), 2.8 ± 0.53 nM. The IC50 in data set [10] (setting [24]) was 1.67 ± 0.36 nM; in data set [11] (setting [25]), above 1000 nM; in data set [11] (setting [26]) it was above 1000 nM; in data set [12] (setting [27]), 2.35 ± 0.13 nM. Besides, in [6] (result in words), the “effect of P-gp inhibitor (elacridar) co-treatment on brain exposure” value is on record as “did display potentiation”. Moreover, the “dose-response of phospho-ERK1/2 inhibition” value in data set [7] is on record as “clear dose-dependent inhibition”. Also, in [7], the “inhibition of MAPK signaling (MEK1/2 and ERK1/2 phosphorylation)” value is “strongly inhibited”. Besides, the “inhibition of ERK1/2 phosphorylation after 24 h” value (from here on “inhibition … after 24 h”) in [7] is “sustained”.
Consider `CCCS(=O)(=O)Nc1cc(Cl)cc(-c2nc(C(C)(C)C)sc2-c2ccnc(NCCCCC(=O)O)n2)c1F` [6-263, 5-((4-(2-(tert-butyl)-4-(5-chloro-2-fluoro-3-(propylsulfonamido)phenyl)thiazol-5-yl)pyrimidin-2-yl)amino)pentanoic acid], for which the IC50 in data set [1] (setting [13]), in [1] (setting [14]), in data set [2] (setting [15]), in [2] (setting [16]), in [3] (setting [17]) and in data set [3] (setting [18]) was above 10000 nM in each case. Moreover, the IC50 in [4] (setting [19]) was 2100 ± 456 nM; in [4] (setting [20]), 2100 ± 456 nM; in data set [5] (setting [21]) it was 93.2 ± 14.1 nM; in data set [8] (setting [22]) it was above 10000 nM; in data set [8] (setting [23]), above 10000 nM; in data set [9] (Homo sapiens, A-375, 72 h), 27.3 ± 3.01 nM. The IC50 was 21.4 ± 4.21 nM in [10] (setting [24]), above 10000 nM in data set [11] (setting [25]), above 10000 nM in data set [11] (setting [26]) and 22.5 ± 1.2 nM in [12] (setting [27]). The “enhancement of BBB penetrance by P-gp inhibition” value turned out to be 1.5 fold in [6] (15 min) and 2.5 fold in [6] (60 min). Also, the “dose-response of phospho-ERK1/2 inhibition” value in data set [7] is “clear dose-dependent inhibition”. For the same compound, the “inhibition of MAPK signaling (MEK1/2 and ERK1/2 phosphorylation)” value in data set [7] was “strongly inhibited”. Moreover, the “inhibition … after 24 h” value in [7] was “sustained”.
Turning to `CC(C)(C)c1nc(-c2cccc(NS(=O)(=O)c3c(F)cccc3F)c2F)c(-c2ccnc(N)n2)s1` [Dabrafenib, reference compound], the IC50 in data set [1] (read-out: T98G IC50) was above 1000 nM; in [2] (WT BRAF, read-out: CHL-1 IC50) it was above 1000 nM; in data set [3] (read-out: U118MG IC50) it was above 1000 nM; in data set [4] (WT BRAF, read-out: HCT116 IC50) it was above 1000 nM; in data set [5] (V600E BRAF), 6.84 ± 0.84 nM; in data set [8] (WT BRAF, read-out: B16F10 IC50) it was above 1000 nM. Besides, the IC50 in data set [9] is 7.46 ± 1.1 nM; in [9] (listed as 6-74) it was 5.38 ± 0.38 nM; in data set [10] (V600E BRAF), 4.74 ± 0.84 nM; in data set [11] (read-out: U87 IC50), above 1000 nM; in [12] (V600E BRAF) it was 4.76 ± 0.42 nM. In addition, the “enhancement of BBB penetrance by P-gp inhibition” value in data set [6] (15 min) is reported as 4.3 fold; in data set [6] (60 min), 5.8 fold. Also, the “inhibition … after 24 h” value in data set [7] is given as “diminished inhibition”. For the same compound, in data set [9] (A375, 72-hour incubation), the “% Emax” value came out at 65%.

The values are drawn from patent publication US20250230151A1, “COMPOUNDS FOR CANCERS DRIVEN BY BRAF MUTATION” (THE BOARD OF TRUSTEES OF THE UNIVERSITY OF ILLINOIS, priority 2021, published 2025).
